Measurements as given in patent US10329231B2, “Epoxy compound, method for producing the same, epoxy resin composition, and cured product thereof” (DIC Corporation, priority 2012, dated 2019).

Experiments:
Assay type in all cases: physicochemical
[1] = Softening point, ball & ring (B & R) method, JIS K7234; details: glycerin heating medium
From the text: 2) Method for measuring softening point: measured by a ball & ring (B & R) method using glycerin as a heating medium according to JIS K7234.
Apparatus name: ASP-M2 model manufactured by Meitec Corporation

[2] = Melt viscosity at 150° C., ASTM D4287 (ICI viscometer method); design: Melt viscosity at 150° C. of epoxy resin: unit not given here; details: for Melt viscosity at 150° C. of epoxy resin: Table 1
Description: 1) Melt viscosity at 150° C.: measured with an apparatus below according to ASTM D4287.
Apparatus name: MODEL CV-1S manufactured by Codex Corporation

[3] = Solubility in hexane during purification; details: reflux then room temperature
Description: Oxidative coupling reaction and solvent extraction were performed under the same conditions as in Example 1. Ethyl acetate was distilled off under vacuum, and then hexane was added to the resultant crude product. The mixture was transferred to a SUS container provided with a thermometer, a stirrer, and Dean-Stark trap, and hexane was further added so that the total amount was 5 L, followed by reflux. The hexane solution was cooled to room temperature, and then insoluble substances were filtered off. The solvent of the filtrate was distilled off under vacuum, and the residue was dried at 110° C. for 5 hours to produce 2 g (yield 3%) of a solid containing [1,1′-binaphthalene]-2,2′,7,7′-tetraol as a main component.

Row | Structure (SMILES) | Softening point of epoxy resin [1] | Melt viscosity at 150° C. of epoxy resin ([2]; 150° C.) | melt viscosity ([2]; ICI viscometer method, measurement temperature 150° C.) | solubility in hexane [3] | 150° C. melt viscosity ([2]; 150° C., data given with the product description)
1 | c1cc2ccc(OCC3CO3)c(-c3c(OCC4CO4)ccc4ccc(OCC5CO5)cc34)c2cc1OCC1CO1 (stereo not shown) [Example A-1, 2,2′,7,7′-tetraglycidyloxy-[1,1′-binaphthalene]] | 61 °C | 1.1 | 1.1 dPa·s | – | –
2 | Oc1ccc2ccc(O)c(-c3c(O)ccc4ccc(O)cc34)c2c1 [1,1′-Binaphthalene]-2,2′,7,7′-tetraol, [1,1′-binaphthalene]-2,2′,7,7′-tetraol] | – | – | – | low solubility | –
3 | c1cc2ccc(OCC3CO3)c(Cc3c(OCC4CO4)ccc4ccc(OCC5CO5)cc34)c2cc1OCC1CO1 (stereo not shown) [Example A-2, reference compound] | 91 °C | 4.5 | – | – | 4.5 ps
